Reference: ChEMBL document CHEMBL1201862, “PubChem BioAssay data set” (2004)
Activity calls are given as the source filed them.

Experiments:
Large T antigen = Large T antigen (Simian virus 40, UniProt P03070); type: functional, Betapolyomavirus macacae;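 note: Confirmatory-stage PubChem screen for compounds that inhibit SV40 T antigen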
[1] = target: FAD-linked sulfhydryl oxidase ALR (Homo sapiens, UniProt P55789); test: ALR-catalysed DTT oxidation blockers – biochemical, H2O2 detection, luminescence, cherry-pick, dose response (AID 493248)
Chain of FAD-linked sulfhydryl oxidase ALR (P55789 whole entry): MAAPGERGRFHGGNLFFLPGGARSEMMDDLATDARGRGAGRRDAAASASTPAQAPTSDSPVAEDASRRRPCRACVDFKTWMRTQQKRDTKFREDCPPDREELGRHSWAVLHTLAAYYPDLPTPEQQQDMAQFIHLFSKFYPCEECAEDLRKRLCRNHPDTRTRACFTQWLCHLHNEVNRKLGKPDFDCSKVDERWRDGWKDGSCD

[2] = system: Streptococcus sp. 'group A'; test: Streptococcus pyogenes SK(-)GAS viability under kanamycin – luminescence, BacTiterGlo, confirmation, counter-screen for streptokinase expression inhibitor project, dose response (AID 1900); type: functional, organism-based
Streptokinase A = target: T1, Streptokinase A (Streptococcus pyogenes serotype M1, UniProt P10520); test: viability-normalized secreted streptokinase activity reduction – plasminogen activation absorbance, OD405, dose response (AID 1914); type: functional, Streptococcus pyogenes M1 GAS;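 note: secreted streptokinase activity via plasminogen activation per viability signal from cell pellet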
T1 sequence (P10520 whole entry): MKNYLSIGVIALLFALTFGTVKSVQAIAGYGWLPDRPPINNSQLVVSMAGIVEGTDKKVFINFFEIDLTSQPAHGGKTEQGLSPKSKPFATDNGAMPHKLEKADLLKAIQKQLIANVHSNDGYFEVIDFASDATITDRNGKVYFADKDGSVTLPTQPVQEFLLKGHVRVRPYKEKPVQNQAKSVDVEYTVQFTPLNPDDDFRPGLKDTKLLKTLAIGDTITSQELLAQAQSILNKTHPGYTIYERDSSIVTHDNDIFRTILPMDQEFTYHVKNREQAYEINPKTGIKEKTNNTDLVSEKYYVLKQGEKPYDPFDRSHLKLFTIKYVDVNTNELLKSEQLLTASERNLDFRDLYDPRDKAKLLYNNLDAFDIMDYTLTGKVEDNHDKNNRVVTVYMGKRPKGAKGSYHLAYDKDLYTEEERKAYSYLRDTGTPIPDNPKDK

[3] = viability of PTEN-deleted HCT116 cells – cell-based, HCT116 PTEN knockout, dose response (AID 1047); type: functional;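 note: HCT116 colon tumor cells with PTEN knocked out; cells exposed to compound for 60 hours before readout; potency for loss of cell viability measured by luminescence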
[4] = viability of HCT116 lacking mutant beta-catenin – cell-based, human colon tumor, dose response (AID 1045); type: functional;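 note: HCT116 colon tumor cells with beta catenin knocked out; cells exposed to compound for 60 hours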
Streptococcus = test: GAS UMAA2166 growth inhibition – luminescence, BacTiterGlo, counter-screen for streptokinase expression inhibitor project, dose response (AID 1915); type: functional, organism-based;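 note: potency for reduction of bacterial viability or growth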
[5] = target: T2, Calpain-2 catalytic subunit (Sus scrofa, UniProt P43367); test: m-calpain protease blockers, concentration series – biochemical, fluorogenic peptide substrate, dose response (AID 1420); type: functional
T2 sequence (P43367 whole entry): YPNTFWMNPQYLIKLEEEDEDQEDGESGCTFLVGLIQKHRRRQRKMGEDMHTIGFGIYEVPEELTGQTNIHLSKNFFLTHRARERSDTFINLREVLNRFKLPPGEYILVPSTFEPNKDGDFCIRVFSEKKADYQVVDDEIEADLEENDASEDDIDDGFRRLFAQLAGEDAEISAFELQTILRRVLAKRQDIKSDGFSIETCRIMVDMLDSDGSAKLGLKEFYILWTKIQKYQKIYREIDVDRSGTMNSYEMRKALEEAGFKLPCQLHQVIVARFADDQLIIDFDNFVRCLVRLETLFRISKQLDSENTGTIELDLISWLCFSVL

Leucine aminopeptidase = target: T3, Leucine aminopeptidase (Plasmodium falciparum 3D7, UniProt Q8IL11); test: P. falciparum M17LAP inhibitors, primary screen, biochemical, fluorogenic H-Leu-NHMec substrate, 1536-well (AID 1619); type: functional
T3 sequence (Q8IL11 whole entry): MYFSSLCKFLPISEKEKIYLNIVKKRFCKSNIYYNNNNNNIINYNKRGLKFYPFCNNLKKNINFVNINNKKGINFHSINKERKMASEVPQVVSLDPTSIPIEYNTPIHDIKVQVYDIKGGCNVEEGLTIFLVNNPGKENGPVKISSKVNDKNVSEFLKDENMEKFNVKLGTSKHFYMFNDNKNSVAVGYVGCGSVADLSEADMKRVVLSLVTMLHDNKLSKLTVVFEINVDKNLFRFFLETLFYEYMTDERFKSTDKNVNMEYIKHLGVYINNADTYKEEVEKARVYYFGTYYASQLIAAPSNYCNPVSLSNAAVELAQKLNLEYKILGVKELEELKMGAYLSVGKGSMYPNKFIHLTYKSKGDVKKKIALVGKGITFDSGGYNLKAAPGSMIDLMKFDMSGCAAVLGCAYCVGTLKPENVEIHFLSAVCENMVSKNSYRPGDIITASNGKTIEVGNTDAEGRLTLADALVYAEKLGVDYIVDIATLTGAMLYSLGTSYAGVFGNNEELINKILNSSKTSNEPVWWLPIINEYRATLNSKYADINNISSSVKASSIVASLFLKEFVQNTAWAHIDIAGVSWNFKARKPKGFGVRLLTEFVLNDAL

Nonstructural protein 1 = Nonstructural protein 1 (Influenza A virus, UniProt Q194T2); type: functional, Influenza A virus (A/California/07/2009(H1N1))
Chain of Nonstructural protein 1 (Q194T2 whole entry): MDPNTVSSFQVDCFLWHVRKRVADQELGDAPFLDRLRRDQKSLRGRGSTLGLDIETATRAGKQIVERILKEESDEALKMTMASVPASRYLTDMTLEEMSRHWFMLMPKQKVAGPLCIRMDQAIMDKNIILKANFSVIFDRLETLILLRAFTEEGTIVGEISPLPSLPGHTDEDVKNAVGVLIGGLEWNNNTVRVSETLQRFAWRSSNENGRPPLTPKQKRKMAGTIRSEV

Cytochrome P450 2C19 = Cytochrome P450 2C19 (Homo sapiens, UniProt P33261); test: Cytochrome panel assay with activity outcomes. Panel member name: p450-cyp2c19 Compounds with AC50 equal or less than 10 uM are considered active; type: functional; conditions: read-out: AC50
Chain of Cytochrome P450 2C19 (P33261 whole entry): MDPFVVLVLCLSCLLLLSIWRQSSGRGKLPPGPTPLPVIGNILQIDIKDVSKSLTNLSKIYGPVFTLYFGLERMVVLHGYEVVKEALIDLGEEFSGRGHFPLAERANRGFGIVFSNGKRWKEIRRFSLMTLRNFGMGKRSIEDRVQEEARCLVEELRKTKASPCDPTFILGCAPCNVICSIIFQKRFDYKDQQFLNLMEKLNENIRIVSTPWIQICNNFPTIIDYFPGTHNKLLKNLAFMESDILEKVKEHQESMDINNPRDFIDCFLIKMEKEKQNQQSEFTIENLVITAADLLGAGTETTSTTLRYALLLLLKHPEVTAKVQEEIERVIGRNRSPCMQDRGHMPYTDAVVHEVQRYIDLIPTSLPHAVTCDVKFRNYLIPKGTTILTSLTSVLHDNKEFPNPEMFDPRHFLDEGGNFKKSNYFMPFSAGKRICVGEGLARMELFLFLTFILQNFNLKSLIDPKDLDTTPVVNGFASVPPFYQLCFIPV

Cytochrome P450 2D6 = Cytochrome P450 2D6 (Homo sapiens, UniProt P10635);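 note: CYP2D6 member of a cytochrome P450 panel assay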
Chain of Cytochrome P450 2D6 (P10635 whole entry, the tested form may be a part): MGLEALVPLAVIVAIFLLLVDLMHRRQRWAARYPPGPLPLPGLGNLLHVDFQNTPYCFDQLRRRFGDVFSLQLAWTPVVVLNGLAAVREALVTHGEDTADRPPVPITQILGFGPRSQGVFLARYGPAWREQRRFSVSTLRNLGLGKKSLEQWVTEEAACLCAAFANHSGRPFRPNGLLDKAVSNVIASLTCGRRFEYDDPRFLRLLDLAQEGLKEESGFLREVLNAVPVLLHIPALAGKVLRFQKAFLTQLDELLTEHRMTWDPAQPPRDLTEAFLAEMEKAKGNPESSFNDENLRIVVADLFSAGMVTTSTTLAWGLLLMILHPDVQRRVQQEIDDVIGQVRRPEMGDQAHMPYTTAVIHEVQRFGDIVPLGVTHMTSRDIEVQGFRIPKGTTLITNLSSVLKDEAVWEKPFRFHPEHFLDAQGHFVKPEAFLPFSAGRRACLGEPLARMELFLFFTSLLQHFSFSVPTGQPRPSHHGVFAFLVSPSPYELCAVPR

[6] = target: T4, RNA-binding protein pos-1 (Caenorhabditis elegans, UniProt G5EF15); test: disruptors of C. elegans POS-1 RNA interaction – biochemical, fluorescence polarization, dose response (AID 1964);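 note: purified POS-1 fused to maltose binding protein made in E. coli; potency of compounds blocking POS-1 binding to fluorescent RNA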
T4 sequence (G5EF15 whole entry): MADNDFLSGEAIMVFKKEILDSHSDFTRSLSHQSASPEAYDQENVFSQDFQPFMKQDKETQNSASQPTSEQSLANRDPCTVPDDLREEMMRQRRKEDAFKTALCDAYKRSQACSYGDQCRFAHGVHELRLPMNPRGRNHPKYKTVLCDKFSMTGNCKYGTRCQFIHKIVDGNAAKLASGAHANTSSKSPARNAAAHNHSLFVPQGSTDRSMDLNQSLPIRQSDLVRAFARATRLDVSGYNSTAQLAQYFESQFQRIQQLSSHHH

[7] = target: T5, Zinc finger protein mex-5 (Caenorhabditis elegans, UniProt Q9XUB2); test: potency of MEX-5 RNA-binding blockers – biochemical, C. elegans, fluorescence polarization, dose response (AID 1960)
T5 sequence (Q9XUB2 whole entry): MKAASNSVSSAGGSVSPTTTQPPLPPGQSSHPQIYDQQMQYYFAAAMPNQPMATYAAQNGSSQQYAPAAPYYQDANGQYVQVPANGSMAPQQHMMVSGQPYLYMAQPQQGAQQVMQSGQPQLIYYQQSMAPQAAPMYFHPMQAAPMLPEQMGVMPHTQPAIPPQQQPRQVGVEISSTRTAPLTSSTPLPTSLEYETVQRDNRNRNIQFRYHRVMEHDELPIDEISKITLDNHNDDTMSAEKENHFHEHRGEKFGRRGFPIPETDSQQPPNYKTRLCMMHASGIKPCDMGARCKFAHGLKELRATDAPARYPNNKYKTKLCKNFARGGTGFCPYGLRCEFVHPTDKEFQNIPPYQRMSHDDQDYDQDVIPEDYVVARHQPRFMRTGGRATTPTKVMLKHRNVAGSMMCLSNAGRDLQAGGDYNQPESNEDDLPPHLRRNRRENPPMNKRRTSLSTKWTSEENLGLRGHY

[8] = Trypanosoma cruzi growth suppression in host cells – NIH3T3 host cells, beta-gal luminescence, confirmation (AID 2044); type: functional, cell-based;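 note: intracellular parasites grown in NIH/3T3 mouse fibroblasts as host cells; luminescent beta-galactosidase reporter signal from transgenic T. cruzi replicating inside host cells; inhibitors lower the luminescence signal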
[9] = NIH3T3 cell viability loss – ATP luminescence, mouse fibroblasts, counter-screen, dose response (AID 2010); type: functional, cell-based;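 note: cells exposed to compound for about 90 hours before reading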
Protein skinhead-1 = target: T6, Protein skinhead-1 (Caenorhabditis elegans, UniProt P34707); type: functional
T6 sequence (P34707 whole entry): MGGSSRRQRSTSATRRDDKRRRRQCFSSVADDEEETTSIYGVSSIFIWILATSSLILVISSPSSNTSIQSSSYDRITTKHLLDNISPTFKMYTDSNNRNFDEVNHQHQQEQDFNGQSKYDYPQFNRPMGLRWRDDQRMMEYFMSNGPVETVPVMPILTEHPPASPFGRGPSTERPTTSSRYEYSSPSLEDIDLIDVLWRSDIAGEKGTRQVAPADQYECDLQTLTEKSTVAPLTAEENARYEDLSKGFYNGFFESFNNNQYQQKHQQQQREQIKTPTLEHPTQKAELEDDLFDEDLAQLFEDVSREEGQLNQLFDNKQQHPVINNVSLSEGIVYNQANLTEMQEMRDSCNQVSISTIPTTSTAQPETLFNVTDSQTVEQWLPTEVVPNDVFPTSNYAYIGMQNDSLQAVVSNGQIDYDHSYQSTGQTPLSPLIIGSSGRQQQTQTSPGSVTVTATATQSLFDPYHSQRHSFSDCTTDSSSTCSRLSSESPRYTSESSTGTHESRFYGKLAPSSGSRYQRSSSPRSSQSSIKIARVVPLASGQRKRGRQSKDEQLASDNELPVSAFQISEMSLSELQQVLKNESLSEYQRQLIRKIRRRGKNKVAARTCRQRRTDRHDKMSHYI

Chain of Large T antigen (P03070 whole entry): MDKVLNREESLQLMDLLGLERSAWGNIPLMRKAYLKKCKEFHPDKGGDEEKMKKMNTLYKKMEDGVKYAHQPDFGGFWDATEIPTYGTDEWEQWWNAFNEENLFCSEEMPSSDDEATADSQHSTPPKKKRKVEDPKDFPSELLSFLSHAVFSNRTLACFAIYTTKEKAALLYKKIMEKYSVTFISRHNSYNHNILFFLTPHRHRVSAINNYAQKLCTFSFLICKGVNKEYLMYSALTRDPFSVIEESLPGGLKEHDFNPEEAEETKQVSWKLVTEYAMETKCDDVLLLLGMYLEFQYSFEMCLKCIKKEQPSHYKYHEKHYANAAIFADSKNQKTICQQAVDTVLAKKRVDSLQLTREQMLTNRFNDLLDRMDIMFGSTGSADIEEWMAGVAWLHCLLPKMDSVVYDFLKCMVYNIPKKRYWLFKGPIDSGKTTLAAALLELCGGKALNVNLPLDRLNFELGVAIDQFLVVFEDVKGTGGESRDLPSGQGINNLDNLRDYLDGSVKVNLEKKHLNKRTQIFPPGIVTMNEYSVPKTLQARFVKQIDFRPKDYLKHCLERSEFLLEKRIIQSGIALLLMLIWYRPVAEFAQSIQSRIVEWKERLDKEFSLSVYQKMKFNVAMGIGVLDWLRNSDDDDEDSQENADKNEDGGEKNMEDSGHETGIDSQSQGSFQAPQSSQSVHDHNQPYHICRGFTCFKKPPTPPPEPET

| Compound | IC50 [5] | IC50 (Leucine aminopeptidase) | further results |
| --- | --- | --- | --- |
| COc1cc(/C=N/NS(=O)(=O)c2ccc(Br)cc2)ccc1O | – | – | IC50 (Large T antigen): 19.4 µM (active); AC50 [1]: 1.7 µM (active) |
| CC(C)NC(=O)NC(=O)CSc1nnc(COc2ccccc2F)n1C(C)C1CC2CCC1C2 (stereo not drawn) | – | – | EC50 [2]: 5.26 µM (active); EC50 (Streptokinase A): 16.8 µM (active); EC50 [3]: 19 µM (active); EC50 [4]: 20.8 µM (active); EC50 (Streptococcus): > 150 µM (not active) |
| COc1cc(/C=N/Nc2ccccn2)ccc1O | – | – | IC50 (Large T antigen): 5.41 µM (active) |
| COC(=O)c1c(C)oc(C)c1S(=O)(=O)Nc1ccc(C(C)C)cc1 | 11.4 µM (not active) | – | – |
| COCCSc1nnc(NC(=O)c2cc(C(=O)OC)cc([N+](=O)[O-])c2)s1 | – | 60.2 µM (active) | – |
| Cc1c(NN=C2C(=O)NC(=S)NC2=O)c(=O)n(-c2ccccc2)n1C | – | – | IC50 (Nonstructural protein 1): 2.77 µM (active) |
| N#CCOc1nc(N2CCCC2)nc(N2CCCC2)n1 | 14.3 µM (not active) | – | – |
| CC(C)c1ccc(CNc2ccc([N+](=O)[O-])cn2)cc1 | 6.03 µM (active) | – | – |
| Cc1cc(C)nc(NS(=O)(=O)c2ccc(N/C=C3\CCCC3=O)cc2)n1 | – | 56.7 µM (active) | – |
| COc1ccc(N2CCN(C(CNC(=O)C3CCCCC3)c3cccnc3)CC2)cc1 (stereo not drawn) | – | – | IC50 (Large T antigen): 27 µM (active); AC50 (Cytochrome P450 2C19): 7.08 µM (inconclusive); AC50 (Cytochrome P450 2D6): 0.355 µM (inconclusive) |
| O=C(O)C1CCCCC1C(=O)Nc1cc(Cl)ccc1Cl (stereo not drawn) | – | 25 µM (active) | AC50 (Cytochrome P450 2C19): 25.1 µM (inconclusive) |
| CCOC(=O)c1c(NC(=O)C2C3CCC(O3)C2C(=O)O)sc(C)c1-c1ccc(F)cc1 (stereo not drawn) | – | 8.78 µM (active) | – |
| O=C(CN=C(S)N(Cc1ccccc1)Cc1cccs1)NCc1ccc(F)cc1 | 9.61 µM (not active) | – | – |
| CCN(CC)c1ccc(NC(=O)CSc2ccsc2[N+](=O)[O-])c(C)c1 | – | 1.9 µM (active) | – |
| Nc1nnnn1CC(=O)N/N=C/c1cc([N+](=O)[O-])ccc1O | – | – | IC50 (Nonstructural protein 1): 3.13 µM (active) |
| CC(C)C[C@H](NC(=O)c1[nH]cnc1C(=O)N[C@@H](CCCCNC(=O)OC(C)(C)C)C(=O)OC(C)(C)C)C(=O)OC(C)(C)C | 3.89 µM (not active) | – | – |
| CN(C)c1ncc(S(=O)(=O)c2ccc(Cl)cc2)c(-c2ccccc2)n1 | 8.73 µM (not active) | – | – |
| O=C(CCCOc1ccc(Cl)cc1Cl)N1CCc2ccccc2C1 | 7.32 µM (not active) | – | – |
| CCOc1cc(C(=O)N/N=C\c2cn(CC)nc2C)cc(OCC)c1OCC | > 50 µM (not active) | – | – |
| Fc1ccc(CNc2nc(-c3ccccc3)nc3ccccc23)cc1 | 6.57 µM (not active) | – | EC50 [6]: > 300 µM (not active); EC50 [7]: > 300 µM (not active); EC50 [8]: 0.107 µM (active); EC50 [9]: > 30 µM (not active); IC50 (Protein skinhead-1): 32.9 µM (active) |
| O=C(CN1C(=O)c2ccccc2S1(=O)=O)NC1CC2CCC1C2 (stereo not drawn) | – | 75.4 µM (active) | – |
| COc1ccccc1/C=C/C=N/NC(=O)CCC1C(=O)NN=C1C (stereo not drawn) | – | 57.2 µM (active) | – |
| c1nc(NCc2ccc3c(c2)OCO3)n[nH]1 | – | 17.9 µM (active) | – |
| O=C(CSc1nc[nH]n1)Nc1nnc(-c2ccccc2)s1 | – | 43.1 µM (active) | – |
| O=C(NCC1COc2ccccc2O1)C1C2C=CC3(CN(Cc4cccs4)C(=O)C13)O2 (stereo not drawn) | – | 7.96 µM (active) | – |
